# Experimental data taken from the supplement of paper PMC10307832.
# Compound: O=C(NC1CCNCC1)c1n[nH]cc1NC(=O)c1c(Cl)cccc1Cl [AT-7519] + CC(C)C[C@H](NC(=O)[C@H](Cc1ccccc1)NC(=O)c1cnccn1)B(O)O [Bortezomib] (partner 0.002 µM)
# Assay: relative viability (nuclei count vs DMSO), 5 days (fraction); higher = more cells survive
# Settings: first compound 1 µM
# In short: (§1)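 Each reported value is a median over duplicate plates. It expresses relative viability: treated-well nuclei count divided by vehicle-well nuclei count. Lung cancer cell lines in 1536-well plates were dosed by pin tool a day after seeding, alone with one drug or with a fixed anchor-drug dose plus five library-drug doses (not always all listed) in √10 steps, and nuclei were counted after 5 days.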
row,Cell Line,relative viability
1,LXF-289,1.01
2,NCI-H23,0.504
3,NCI-H647,0.564
4,CAL-12T,0.336
5,NCI-H1651,0.974
6,EPLC-272H,0.812
7,NCI-H2228,0.8
8,NCI-H1355,1.29
9,NCI-H3122,0.688
10,NCI-H1437,0.307
11,NCI-H1755,0.969
12,NCI-H2023,0.503
13,HCC-15,0.977
14,PC-14,0.618
15,EKVX,1.13
16,LC-2-ad,0.672
17,NCI-H1975,0.202
18,RERF-LC-KJ,0.797

# Compound: O=C(NC1CCNCC1)c1n[nH]cc1NC(=O)c1c(Cl)cccc1Cl [AT-7519] + Cc1nc(Nc2ncc(C(=O)Nc3c(C)cccc3Cl)s2)cc(N2CCN(CCO)CC2)n1 [Dasatinib] (partner 0.075 µM)
# Assay: as above
# Settings: first compound 0.01 µM
# In short: as §1
row,Cell Line,relative viability
1,ChaGo-K-1,0.583
2,NCI-H2405,0.203
3,HOP-62,0.653
4,LU99A,0.609
5,BEN,0.354
6,HARA,0.265
7,HCC-78,0.368
8,NCI-H322M,0.257
9,LCLC-97TM1,0.911
10,NCI-H2009,0.282
11,A-427,0.702
12,NCI-H441,0.574
13,NCI-H661,0.732
14,NCI-H1734,0.445
15,NCI-H460,0.545
16,NCI-H2347,0.375
17,SK-LU-1,0.171
18,201T,0.586
19,NCI-H1915,0.215

row,Cell Line,relative viability
1,HCC-827,0.299
2,LXF-289,0.219
3,NCI-H23,0.681
4,NCI-H647,0.184
5,CAL-12T,0.532
6,NCI-H1651,0.396
7,EPLC-272H,0.325
8,NCI-H2228,0.407
9,NCI-H1355,0.747
10,NCI-H3122,0.917
11,NCI-H1437,0.444
12,NCI-H1755,0.465
13,NCI-H2023,0.636
14,HCC-15,0.669
15,PC-14,0.241
16,EKVX,0.526
17,LC-2-ad,0.555
18,NCI-H1975,0.341
19,RERF-LC-KJ,0.903

# Same assay, conditions: first compound 0.03162 µM
row,Cell Line,relative viability
1,ChaGo-K-1,0.501
2,NCI-H2405,0.216
3,HOP-62,0.699
4,LU99A,0.574
5,BEN,0.321
6,HARA,0.28
7,HCC-78,0.397
8,NCI-H322M,0.257
9,LCLC-97TM1,0.791
10,NCI-H2009,0.279
11,A-427,0.675
12,NCI-H441,0.654
13,NCI-H661,0.849
14,NCI-H1734,0.421
15,NCI-H460,0.558
16,NCI-H2347,0.32
17,SK-LU-1,0.155
18,201T,0.528
19,NCI-H1915,0.316

row,Cell Line,relative viability
1,HCC-827,0.298
2,LXF-289,0.232
3,NCI-H23,0.715
4,NCI-H647,0.23
5,CAL-12T,0.404
6,NCI-H1651,0.304
7,EPLC-272H,0.339
8,NCI-H2228,0.464
9,NCI-H1355,0.633
10,NCI-H3122,0.805
11,NCI-H1437,0.424
12,NCI-H1755,0.404
13,NCI-H2023,0.548
14,HCC-15,0.584
15,PC-14,0.239
16,EKVX,0.388
17,LC-2-ad,0.61
18,NCI-H1975,0.341
19,RERF-LC-KJ,0.847

# Same assay, conditions: first compound 0.3162 µM
row,Cell Line,relative viability
1,ChaGo-K-1,0.611
2,NCI-H2405,0.199
3,HOP-62,0.731
4,LU99A,0.468
5,BEN,0.399
6,HARA,0.314
7,HCC-78,0.335
8,NCI-H322M,0.226
9,LCLC-97TM1,0.763
10,NCI-H2009,0.234
11,A-427,0.707
12,NCI-H441,0.421
13,NCI-H661,0.71
14,NCI-H1734,0.391
15,NCI-H460,0.438
16,NCI-H2347,0.356
17,SK-LU-1,0.157
18,201T,0.609
19,NCI-H1915,0.334

row,Cell Line,relative viability
1,HCC-827,0.207
2,LXF-289,0.222
3,NCI-H23,0.811
4,NCI-H647,0.195
5,CAL-12T,0.214
6,NCI-H1651,0.406
7,EPLC-272H,0.382
8,NCI-H2228,0.516
9,NCI-H1355,0.602
10,NCI-H3122,0.809
11,NCI-H1437,0.377
12,NCI-H1755,0.465
13,NCI-H2023,0.485
14,HCC-15,0.433
15,PC-14,0.163
16,EKVX,0.346
17,LC-2-ad,0.328
18,NCI-H1975,0.384
19,RERF-LC-KJ,0.611

# Same assay, conditions: first compound 1 µM
row,Cell Line,relative viability
1,ChaGo-K-1,0.543
2,NCI-H2405,0.219
3,HOP-62,0.626
4,LU99A,0.536
5,BEN,0.331
6,HARA,0.211
7,HCC-78,0.364
8,NCI-H322M,0.275
9,LCLC-97TM1,0.396
10,NCI-H2009,0.157
11,A-427,0.391
12,NCI-H441,0.324
13,NCI-H661,0.392
14,NCI-H1734,0.31
15,NCI-H460,0.243
16,NCI-H2347,0.0926
17,SK-LU-1,0.163
18,201T,0.662
19,NCI-H1915,0.274
20,HCC-827,0.249
21,LXF-289,0.235
22,NCI-H23,0.438
23,NCI-H647,0.131
24,CAL-12T,0.0899
25,NCI-H1651,0.292
26,EPLC-272H,0.248
27,NCI-H2228,0.352
28,NCI-H1355,0.784
29,NCI-H3122,0.354
